Tests used:
24-AcSMT [1] = biological target: T1, 24-AcSMT (Acanthamoeba castellanii, UniProt L8GNG7); assay: steady-state inhibition of cycloartenol methylation by recombinant enzyme; also turned over to ERGT (GC-MS); type: biochemical
T1 construct: gene ACA1_193300; recombinant 24-AcSMT (XP_004336540) expressed in E. coli, lysate preparation

28-AcSMT [2] = biological target: T2, 28-AcSMT (Acanthamoeba castellanii, UniProt L8GKC5); assay: steady-state inhibition of […]([…])-methylene lophenol methylation by recombinant enzyme, GC-MS; partition ratio and substrate protection; type: biochemical
T2 construct: gene ACA1_237870; recombinant 28-AcSMT (XP_004335307) expressed in E. coli, lysate preparation

28-AcSMT [3] = biological target: T3, 28-AcSMT (Acanthamoeba castellanii, UniProt L8GKC5); assay: MALDI-TOF mass shift and retention of 3H-label after Ni-NTA purification; GC-MS of diol products; type: binding
T3 construct: gene ACA1_237870
T3 sequence (L8GKC5 1-346): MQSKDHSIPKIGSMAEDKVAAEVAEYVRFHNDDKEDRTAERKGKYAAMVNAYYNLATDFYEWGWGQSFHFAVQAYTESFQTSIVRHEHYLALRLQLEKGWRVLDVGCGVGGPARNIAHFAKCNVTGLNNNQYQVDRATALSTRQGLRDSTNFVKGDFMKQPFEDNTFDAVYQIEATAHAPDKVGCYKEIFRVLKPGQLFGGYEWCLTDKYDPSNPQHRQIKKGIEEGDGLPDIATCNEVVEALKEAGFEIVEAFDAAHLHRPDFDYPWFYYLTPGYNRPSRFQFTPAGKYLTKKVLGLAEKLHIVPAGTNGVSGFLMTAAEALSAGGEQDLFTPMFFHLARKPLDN

24-AcSMT [4] = biological target: T1, 24-AcSMT; assay: native substrate in steady-state SMT assay (Km); type: biochemical; conditions: cited from earlier work
[5] = substrate: C=C(CC[C@@H](C)[C@H]1CC[C@H]2C3=CC[C@H]4[C@H](C)[C@@H](O)CC[C@]4(C)[C@H]3CC[C@]12C)C(C)C; assay: cells, lysate or membranes; type: biochemical, Acanthamoeba castellanii; conditions: SAM active site

T1 sequence (L8GNG7 entry or part of it): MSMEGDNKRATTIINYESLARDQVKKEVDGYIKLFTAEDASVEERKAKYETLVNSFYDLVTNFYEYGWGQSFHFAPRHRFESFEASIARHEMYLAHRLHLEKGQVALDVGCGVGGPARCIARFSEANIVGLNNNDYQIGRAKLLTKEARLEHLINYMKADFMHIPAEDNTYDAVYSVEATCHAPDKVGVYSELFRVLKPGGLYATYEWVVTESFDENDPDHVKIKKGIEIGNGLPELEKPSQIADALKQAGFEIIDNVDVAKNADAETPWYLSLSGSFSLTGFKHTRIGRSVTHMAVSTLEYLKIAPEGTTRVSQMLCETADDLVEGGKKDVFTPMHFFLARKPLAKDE

**Q.** Which Ki (24-AcSMT [1]) does the source give for `CC(C)=C/C=C/[C@@H](C)[C@H]1CC[C@H]2C3=CC=C4C[C@@H](O)CC[C@]4(C)[C@H]3CC[C@]12C` [CHT] here?
**A.** 18 µM

**Q.** And the Ki (28-AcSMT [2])?
**A.** 8 µM

**Q.** Which “MALDI-TOF mass shift and retention of 3H-label after Ni-NTA purification; GC-MS” value (28-AcSMT [3]) does the source give for `C=C(/C=C/[C@@H](C)[C@H]1CC[C@H]2C3=CC=C4C[C@@H](O)CC[C@]4(C)[C@H]3CC[C@]12C)C(C)C` [compound 15, ergosta-5,7,22,24(28)-tetraen-3-ol] here?
**A.** irreversible nature of the ERGT-28-AcSMT complex was further confirmed by MALDI-TOF analysis showing an increase in molecular mass

**Q.** For `CC(C)=CCC[C@@H](C)[C@H]1CC[C@@]2(C)[C@@H]3CC[C@H]4C(C)(C)[C@@H](O)CC[C@@]45C[C@@]35CC[C@]12C` [cycloartenol], which Km (24-AcSMT [4]) is on record?
**A.** 48 µM

B1: 28-AcSMT (Acanthamoeba castellanii str. Neff) (protein)
chain: T3 sequence (L8GKC5 1-346)
notes: recombinant 28-AcSMT (XP_004335307) expressed in E. coli, lysate preparation
**Q.** For B1, which Km [5] is on record?
**A.** 44 µM

Source: PMC6495176, “Steroidal antibiotics are antimetabolites of Acanthamoeba steroidogenesis with phylogenetic implications” (Journal of Lipid Research, 2019)
